Source: patent EP0407583A1, “DERIVATIVES OF DICHLOR[…] ACYLAMIDO[…] AND INSECTICIDAL, FU[…] HEMATOCIDAL PREPARATIONS BASED ON THEM” (priority 1989, dated 1990)

Tests used:
[1] = tested on: Alternaria sobani; experiment: Inhibition of phytopathogenic fungi growth, laboratory test on potato-dextrose agar; assay type: cell-based; conditions: active principle 0.01 % by mass in potato-dextrose agar
Method: (§1) A fungicidal composition based on this compound was prepared in the form of a 0.01% solution thereof in distilled water. A fungicidal action of the composition, according to the invention, was tested for inhibition of vegetative fungi growth such as Fusarium moniliforme, Ventura inaequalis, Rhyzoctonia ciolaceae, Botrytis cinereae, Verticillium albo-atrum, Diplodia zeae, Fusarium oxysporum, Rhoma betae, Rhyzoctonia aderholdii, Aspergillus niger, Alternaria sobani, Botrytis allii, Aspergillus fumigatis, Fusarium culmorum, Penicillium cyclopium affecting potato, sugar beet, cotton seeds either in laboratory or field conditions. For testing it to the Petri dishes containing potato-dextrose agar the composition of the invention was.added at the concentration of an active principle of 0.01 % by mass. The Petri dishes containing the same agar culture were inoculated with a mycelium of phytopathogenic fungi. For control dishes the phytopathogenic fungi were inoculated on agar without using the composition of the invention. A fungicidal effect of the composition, according to the invention was tested in comparison with the known fungicidal compositions based on 2,3-dichloro-1,4-naphthoquinone, zinc N,N'-ethylene-bis-dithiocarbamate and tetramethylthiuram disulphide.

[2] = tested on: Aspergillus fumigatis; experiment: as above; assay type: cell-based; conditions: active principle 0.01 % by mass in potato-dextrose agar
Method: as §1

[3] = tested on: Aspergillus niger; experiment: as above; assay type: cell-based; conditions: active principle 0.01 % by mass in potato-dextrose agar
Method: as §1

[4] = tested on: Botrytis allii; experiment: as above; assay type: cell-based; conditions: active principle 0.01 % by mass in potato-dextrose agar
Method: as §1

[5] = tested on: Botrytis cinereae; experiment: as above; assay type: cell-based; conditions: active principle 0.01 % by mass in potato-dextrose agar
Method: as §1

[6] = tested on: Diplodia zeae; experiment: as above; assay type: cell-based; conditions: active principle 0.01 % by mass in potato-dextrose agar
Method: as §1

[7] = tested on: Fusarium culmorum; experiment: as above; assay type: cell-based; conditions: active principle 0.01 % by mass in potato-dextrose agar
Method: as §1

[8] = tested on: Fusarium moniliforme; experiment: as above; assay type: cell-based; conditions: active principle 0.01 % by mass in potato-dextrose agar
Method: as §1

[9] = tested on: Fusarium oxysporum; experiment: as above; assay type: cell-based; conditions: active principle 0.01 % by mass in potato-dextrose agar
Method: as §1

[10] = tested on: Penicillium cyclopium; experiment: as above; assay type: cell-based; conditions: active principle 0.01 % by mass in potato-dextrose agar
Method: as §1

[11] = tested on: Rhoma betae; experiment: as above; assay type: cell-based; conditions: active principle 0.01 % by mass in potato-dextrose agar
Method: as §1

[12] = tested on: Rhyzoctonia aderholdii; experiment: as above; assay type: cell-based; conditions: active principle 0.01 % by mass in potato-dextrose agar
Method: as §1

[13] = tested on: Rhyzoctonia violaceae; experiment: as above; assay type: cell-based; conditions: active principle 0.01 % by mass in potato-dextrose agar
Method: as §1

[14] = tested on: Venturia inaequalis; experiment: as above; assay type: cell-based; conditions: active principle 0.01 % by mass in potato-dextrose agar
Method: as §1

[15] = tested on: Verticillium albo-atrum; experiment: as above; assay type: cell-based; conditions: active principle 0.01 % by mass in potato-dextrose agar
Method: as §1

[16] = tested on: Alternaria sobani; experiment: Inhibition of phytopathogenic fungi, field test on affected potato plants; assay type: in vivo; conditions: 5 m^2 plots of affected potato plants sprayed
Source text: (§2) For field tests the plots of 5 m^2 in size with potato plants affected by Fusarium moniliforme, Venturia inaequalis, Rhyzoctonia violaceae, Botrytis cinereae, Verticillium albo-atrum, Diplodia zeae, Fusarium oxysporum, Rhoma betae, Rhyzoctonia aderholdii, Aspergillus niger, Alternaria sobani, Botrytis allii, Aspergillus fumigatis, Fusarium culmorum, Penicillium cyclopium were sprayed with the fungicide of the invention. To compare, the similar plots of the affected potato plants were aprayed with the known compositions indicated above.

[17] = tested on: Aspergillus fumigatis; experiment: as above; assay type: in vivo; conditions: 5 m^2 plots of affected potato plants sprayed
Source text: as §2

[18] = tested on: Aspergillus niger; experiment: as above; assay type: in vivo; conditions: 5 m^2 plots of affected potato plants sprayed
Source text: as §2

[19] = tested on: Botrytis allii; experiment: as above; assay type: in vivo; conditions: 5 m^2 plots of affected potato plants sprayed
Source text: as §2

[20] = tested on: Botrytis cinereae; experiment: as above; assay type: in vivo; conditions: 5 m^2 plots of affected potato plants sprayed
Source text: as §2

[21] = tested on: Diplodia zeae; experiment: as above; assay type: in vivo; conditions: 5 m^2 plots of affected potato plants sprayed
Source text: as §2

[22] = tested on: Fusarium culmorum; experiment: as above; assay type: in vivo; conditions: 5 m^2 plots of affected potato plants sprayed
Source text: as §2

[23] = tested on: Fusarium moniliforme; experiment: as above; assay type: in vivo; conditions: 5 m^2 plots of affected potato plants sprayed
Source text: as §2

[24] = tested on: Fusarium oxysporum; experiment: as above; assay type: in vivo; conditions: 5 m^2 plots of affected potato plants sprayed
Source text: as §2

[25] = tested on: Penicillium cyclopium; experiment: as above; assay type: in vivo; conditions: 5 m^2 plots of affected potato plants sprayed
Source text: as §2

[26] = tested on: Rhoma betae; experiment: as above; assay type: in vivo; conditions: 5 m^2 plots of affected potato plants sprayed
Source text: as §2

[27] = tested on: Rhyzoctonia aderholdii; experiment: as above; assay type: in vivo; conditions: 5 m^2 plots of affected potato plants sprayed
Source text: as §2

[28] = tested on: Rhyzoctonia violaceae; experiment: as above; assay type: in vivo; conditions: 5 m^2 plots of affected potato plants sprayed
Source text: as §2

[29] = tested on: Venturia inaequalis; experiment: as above; assay type: in vivo; conditions: 5 m^2 plots of affected potato plants sprayed
Source text: as §2

[30] = tested on: Verticillium albo-atrum; experiment: as above; assay type: in vivo; conditions: 5 m^2 plots of affected potato plants sprayed
Source text: as §2

[31] = Solubility (qualitative); conditions: water, alcohols, acetone

O=C(NP(=O)(Nc1ccc(Br)cc1)Nc1ccc(Br)cc1)c1ccc(Br)cc1 [Example 15]
Inhibition of growth of phytopathogenic fungi colonies, % Alternaria sobani test laboratory [1]: 100% | Inhibition of growth of phytopathogenic fungi colonies, % Aspergillus fumigatis Tests laboratory [2]: 88% | Inhibition of growth of phytopathogenic fungi colonies, % Aspergillus niger test laboratory [3]: 100% | Inhibition of growth of phytopathogenic fungi colonies, % Botrytis allii test laboratory [4]: 99% | Inhibition of growth of phytopathogenic fungi colonies, % Botrytis cinereae test laboratory [5]: 100% | Inhibition of growth of phytopathogenic fungi colonies, % Diplodia zeae test laboratory [6]: 100% | Inhibition of growth of phytopathogenic fungi colonies, % Fusarium culmorum Tests laboratory [7]: 100% | Inhibition of growth of phytopathogenic fungi colonies, % Fusatium monili-forme test laboratory [8]: 100% | Inhibition of growth of phytopathogenic fungi colonies, % Fusarium oxysporum test laboratory [9]: 83% | Inhibition of growth of phytopathogenic fungi colonies, % Penicillium cyclopium Tests laboratory [10]: 100% | Inhibition of growth of phytopathogenic fungi colonies, % Rhoma betae test laboratory [11]: 100% | Inhibition of growth of phytopathogenic fungi colonies, % Rhyzoctonia aderholdii test laboratory [12]: 100% | Inhibition of growth of phytopathogenic fungi colonies, % Rhyzoctonia violaceae test laboratory [13]: 100% | Inhibition of growth of phytopathogenic fungi colonies, % Venturia inaequalis test laboratory [14]: 100% | Inhibition of growth of phytopathogenic fungi colonies, % Verticillium albo--atrum test laboratory [15]: 100% | Inhibition of growth of phytopathogenic fungi colonies, % Alternaria sobani test field [16]: 98% | Inhibition of growth of phytopathogenic fungi colonies, % Aspergillus fumigatis Tests field [17]: 80% | Inhibition of growth of phytopathogenic fungi colonies, % Aspergillus niger test field [18]: 98% | Inhibition of growth of phytopathogenic fungi colonies, % Botrytis allii test field [19]: 96% | Inhibition of growth of phytopathogenic fungi colonies, % Botrytis cinereae test field [20]: 98% | Inhibition of growth of phytopathogenic fungi colonies, % Diplodia zeae test field [21]: 98% | Inhibition of growth of phytopathogenic fungi colonies, % Fusarium culmorum Tests field [22]: 100% | Inhibition of growth of phytopathogenic fungi colonies, % Fusatium monili-forme test field [23]: 99% | Inhibition of growth of phytopathogenic fungi colonies, % Fusarium oxysporum test field [24]: 81% | Inhibition of growth of phytopathogenic fungi colonies, % Penicillium cyclopium Tests field [25]: 89% | Inhibition of growth of phytopathogenic fungi colonies, % Rhoma betae test field [26]: 98% | Inhibition of growth of phytopathogenic fungi colonies, % Rhyzoctonia aderholdii test field [27]: 99% | Inhibition of growth of phytopathogenic fungi colonies, % Rhyzoctonia violaceae test field [28]: 99% | Inhibition of growth of phytopathogenic fungi colonies, % Venturia inaequalis test field [29]: 98% | Inhibition of growth of phytopathogenic fungi colonies, % Verticillium albo--atrum test field [30]: 100% | solubility [31]: soluble in water, alcohols, acetone

O=C(NP(=O)(NC(CO)C(O)c1ccc([N+](=O)[O-])cc1)NC(CO)C(O)c1ccc([N+](=O)[O-])cc1)c1ccc(Cl)cc1 (stereo not drawn) [Example 12, para-chlorobenzoylamidophosphoric acid di-1-para-nitrophenyl-1,3-propandiol-2-amide]
Inhibition of growth of phytopathogenic fungi colonies, % Alternaria sobani test laboratory [1]: 48% | Inhibition of growth of phytopathogenic fungi colonies, % Aspergillus fumigatis Tests laboratory [2]: 87% | Inhibition of growth of phytopathogenic fungi colonies, % Aspergillus niger test laboratory [3]: 66% | Inhibition of growth of phytopathogenic fungi colonies, % Botrytis allii test laboratory [4]: 100% | Inhibition of growth of phytopathogenic fungi colonies, % Botrytis cinereae test laboratory [5]: 34% | Inhibition of growth of phytopathogenic fungi colonies, % Diplodia zeae test laboratory [6]: 100% | Inhibition of growth of phytopathogenic fungi colonies, % Fusarium culmorum Tests laboratory [7]: 66% | Inhibition of growth of phytopathogenic fungi colonies, % Fusatium monili-forme test laboratory [8]: 59% | Inhibition of growth of phytopathogenic fungi colonies, % Fusarium oxysporum test laboratory [9]: 60% | Inhibition of growth of phytopathogenic fungi colonies, % Penicillium cyclopium Tests laboratory [10]: 87% | Inhibition of growth of phytopathogenic fungi colonies, % Rhoma betae test laboratory [11]: 64% | Inhibition of growth of phytopathogenic fungi colonies, % Rhyzoctonia aderholdii test laboratory [12]: 100% | Inhibition of growth of phytopathogenic fungi colonies, % Rhyzoctonia violaceae test laboratory [13]: 24% | Inhibition of growth of phytopathogenic fungi colonies, % Venturia inaequalis test laboratory [14]: 70% | Inhibition of growth of phytopathogenic fungi colonies, % Verticillium albo--atrum test laboratory [15]: 100% | Inhibition of growth of phytopathogenic fungi colonies, % Alternaria sobani test field [16]: 46% | Inhibition of growth of phytopathogenic fungi colonies, % Aspergillus fumigatis Tests field [17]: 80% | Inhibition of growth of phytopathogenic fungi colonies, % Aspergillus niger test field [18]: 59% | Inhibition of growth of phytopathogenic fungi colonies, % Botrytis allii test field [19]: 99% | Inhibition of growth of phytopathogenic fungi colonies, % Botrytis cinereae test field [20]: 33% | Inhibition of growth of phytopathogenic fungi colonies, % Diplodia zeae test field [21]: 98% | Inhibition of growth of phytopathogenic fungi colonies, % Fusarium culmorum Tests field [22]: 61% | Inhibition of growth of phytopathogenic fungi colonies, % Fusatium monili-forme test field [23]: 56% | Inhibition of growth of phytopathogenic fungi colonies, % Fusarium oxysporum test field [24]: 59% | Inhibition of growth of phytopathogenic fungi colonies, % Penicillium cyclopium Tests field [25]: 84% | Inhibition of growth of phytopathogenic fungi colonies, % Rhoma betae test field [26]: 63% | Inhibition of growth of phytopathogenic fungi colonies, % Rhyzoctonia aderholdii test field [27]: 100% | Inhibition of growth of phytopathogenic fungi colonies, % Rhyzoctonia violaceae test field [28]: 22% | Inhibition of growth of phytopathogenic fungi colonies, % Venturia inaequalis test field [29]: 65% | Inhibition of growth of phytopathogenic fungi colonies, % Verticillium albo--atrum test field [30]: 100% | solubility [31]: soluble in water, alcohols, acetone

COP(=O)(NC(=O)C(Cl)(Cl)CCl)Nc1ccccc1 (stereo not drawn) [Example 11, methyl α, α , β-trichloropropyonylamidophosphate monoanilide]
Inhibition of growth of phytopathogenic fungi colonies, % Alternaria sobani test laboratory [1]: 69% | Inhibition of growth of phytopathogenic fungi colonies, % Aspergillus fumigatis Tests laboratory [2]: 93% | Inhibition of growth of phytopathogenic fungi colonies, % Aspergillus niger test laboratory [3]: 100% | Inhibition of growth of phytopathogenic fungi colonies, % Botrytis allii test laboratory [4]: 78% | Inhibition of growth of phytopathogenic fungi colonies, % Botrytis cinereae test laboratory [5]: 43% | Inhibition of growth of phytopathogenic fungi colonies, % Diplodia zeae test laboratory [6]: 100% | Inhibition of growth of phytopathogenic fungi colonies, % Fusarium culmorum Tests laboratory [7]: 100% | Inhibition of growth of phytopathogenic fungi colonies, % Fusatium monili-forme test laboratory [8]: 39% | Inhibition of growth of phytopathogenic fungi colonies, % Fusarium oxysporum test laboratory [9]: 62% | Inhibition of growth of phytopathogenic fungi colonies, % Penicillium cyclopium Tests laboratory [10]: 95% | Inhibition of growth of phytopathogenic fungi colonies, % Rhoma betae test laboratory [11]: 67% | Inhibition of growth of phytopathogenic fungi colonies, % Rhyzoctonia aderholdii test laboratory [12]: 100% | Inhibition of growth of phytopathogenic fungi colonies, % Rhyzoctonia violaceae test laboratory [13]: 62% | Inhibition of growth of phytopathogenic fungi colonies, % Venturia inaequalis test laboratory [14]: 54% | Inhibition of growth of phytopathogenic fungi colonies, % Verticillium albo--atrum test laboratory [15]: 56% | Inhibition of growth of phytopathogenic fungi colonies, % Alternaria sobani test field [16]: 66% | Inhibition of growth of phytopathogenic fungi colonies, % Aspergillus fumigatis Tests field [17]: 93% | Inhibition of growth of phytopathogenic fungi colonies, % Aspergillus niger test field [18]: 96% | Inhibition of growth of phytopathogenic fungi colonies, % Botrytis allii test field [19]: 78% | Inhibition of growth of phytopathogenic fungi colonies, % Botrytis cinereae test field [20]: 39% | Inhibition of growth of phytopathogenic fungi colonies, % Diplodia zeae test field [21]: 98% | Inhibition of growth of phytopathogenic fungi colonies, % Fusarium culmorum Tests field [22]: 98% | Inhibition of growth of phytopathogenic fungi colonies, % Fusatium monili-forme test field [23]: 38% | Inhibition of growth of phytopathogenic fungi colonies, % Fusarium oxysporum test field [24]: 60% | Inhibition of growth of phytopathogenic fungi colonies, % Penicillium cyclopium Tests field [25]: 90% | Inhibition of growth of phytopathogenic fungi colonies, % Rhoma betae test field [26]: 65% | Inhibition of growth of phytopathogenic fungi colonies, % Rhyzoctonia aderholdii test field [27]: 100% | Inhibition of growth of phytopathogenic fungi colonies, % Rhyzoctonia violaceae test field [28]: 60% | Inhibition of growth of phytopathogenic fungi colonies, % Venturia inaequalis test field [29]: 52% | Inhibition of growth of phytopathogenic fungi colonies, % Verticillium albo--atrum test field [30]: 54% | solubility [31]: soluble in water, alcohols, acetone
